Tests used:
Assay type in all cases: cell-based
[1] = tested on: Ba/F3-EGFR ins. SVD cells; test: Cell proliferation suppression test (CellTiter-Glo, GI50), Ba/F3-EGFR ins. SVD; settings: Mus musculus, 72 h, 3 days, N=4
Method: (§1) Cell proliferation suppression test Ba/F3-Mock, Ba/F3-EGFR WT, Ba/F3-EGFR ins. ASV, and Ba/F3-EGFR ins. SVD cell lines were cultured based on a culture medium of 10% FBS-containing RPMI 1640 supplemented with 1.5 ug/mL puromycin, and 5 ng/mL IL-3 and 100 ng/mL of EGF were further added to the culture solution for Ba/F3-Mock and Ba/F3-EGFR WT, respectively. The cells were cultured in a CO2 incubator set at 37° C., 5% CO2. Specimens prepared by dilution were seeded into 384-well tissue culture plates with Echo555 (Labcyte Inc.), and the cells were seeded thereto at 400 cells/well for Ba/F3-Mock, Ba/F3-EGFR WT, and Ba/F3-EGFR ins. SVD and at 200 cells/well for Ba/F3-EGFR ins. ASV (day 0), then they were cultured for an additional 3 days. On the day of the compound addition (day 0) and 3 days after the compound addition (day 3), ATP quantity was measured with CellTiter-Glo (registered trademark) 2.0 (Promega Corporation.), and used as an indicator of cell quantity (N=4). In the test, puromycin-free culture medium was used. Concentrations at which cell proliferation from day 0 to day 3 was inhibited by 50% (GIso) were calculated with EXCEL.

Ba/F3-Mock cells = test: Cell proliferation suppression test (CellTiter-Glo, GI50), Ba/F3-Mock; settings: Mus musculus, BaF3, 72 h, 5 ng/mL IL-3, 3 days, N=4
Method: as §1

[2] = tested on: Ba/F3-EGFR ins. ASV cells; test: Cell proliferation suppression test (CellTiter-Glo, GI50), Ba/F3-EGFR ins. ASV; settings: Mus musculus, 72 h, 3 days, N=4
Method: as §1

Ba/F3-EGFR WT cells = test: Cell proliferation suppression test (CellTiter-Glo, GI50), Ba/F3-EGFR WT; settings: Mus musculus, 72 h, 100 ng/mL EGF, 3 days, N=4
Method: as §1

| GI50 [1] | GI50 [2] | GI50 (Ba/F3-EGFR WT cells) | SMILES | GI50 (Ba/F3-Mock cells) |
| --- | --- | --- | --- | --- |
| 11.1 nM | 11.6 nM | 249 nM | C=CC(=O)N1CCC(Oc2cc3c(Nc4ccc(Oc5ccn(-c6cnc(C)c(F)c6)n5)cc4F)ncnc3cc2OC)CC1 [Example 27, 1-(4-{[4-(2-Fluoro-4-{[1-(5-fluoro-6-methylpyridin-3-yl)-1H-pyrazol-3-yl]oxy}anilino)-7-methoxyquinazolin-6-yl]oxy}piperidin-1-yl)prop-2-en-1-one] | 8690 nM |
| 12.1 nM | 12.4 nM | 290 nM | C=CC(=O)N1CCC(Oc2cc3c(Nc4ccc(Oc5ccn(-c6ccc(C)nc6)n5)cc4F)ncnc3cc2OC)CC1 [Example 28, 1-(4-{[4-(2-Fluoro-4-{[1-(6-methylpyridin-3-yl)-1H-pyrazol-3-yl]oxy}anilino)-7-methoxyquinazolin-6-yl]oxy}piperidin-1-yl)prop-2-en-1-one] | 8370 nM |
| 7.9 nM | 11.3 nM | 157 nM | C=CC(=O)N1CCC(Oc2cc3c(Nc4ccc(Oc5ccn(-c6ccnc(Cl)c6)n5)cc4F)ncnc3cc2OC)CC1 [Example 29, 1-(4-{[4-(4-{[1-(2-Chloropyridin-4-yl)-1H-pyrazol-3-yl]oxy}-2-fluoroanilino)-7-methoxyquinazolin-6-yl]oxy}piperidin-1-yl)prop-2-en-1-one] | > 10000 nM |
| 14 nM | 13.5 nM | 121 nM | C=CC(=O)N1CCC(Oc2cc3c(Nc4ccc(Oc5ccn(-c6ccnc(F)c6)n5)cc4F)ncnc3cc2OC)CC1 [Example 30, 1-(4-{[4-(2-Fluoro-4-{[1-(2-fluoropyridin-4-yl)-1H-pyrazol-3-yl]oxy}anilino)-7-methoxyquinazolin-6-yl]oxy}piperidin-1-yl)prop-2-en-1-one] | > 10000 nM |
| 12.8 nM | 15.5 nM | 241 nM | C=CC(=O)N1CCC(Oc2cc3c(Nc4ccc(Oc5ccn(-c6ccc(C7CC7)nc6)n5)cc4F)ncnc3cc2OC)CC1 [Example 31] | > 10000 nM |
| 12.7 nM | 11.9 nM | 162 nM | C=CC(=O)N1CCC(Oc2cc3c(Nc4ccc(Oc5ccn(-c6ccc(F)nc6)n5)cc4F)ncnc3cc2OC)CC1 [Example 32] | > 10000 nM |
| 5.8 nM | 11.3 nM | 163 nM | C=CC(=O)N1CCC(Oc2cc3c(Nc4ccc(Oc5nc(-c6nnc(C(C)C)o6)cs5)cc4F)ncnc3cc2OC)CC1 [Example 33, 1-[4-({4-[2-Fluoro-4-({4-[5-(propan-2-yl)-1,3,4-oxadiazol-2-yl]-1,3-thiazol-2-yl}oxy)anilino]-7-methoxyquinazolin-6-yl}oxy)piperidin-1-yl]prop-2-en-1-one] | > 10000 nM |
| 13.7 nM | 20.5 nM | 276 nM | C=CC(=O)N1CCC(Oc2cc3c(Nc4ccc(Oc5nc(-c6ccc(CC)nc6)cs5)cc4F)ncnc3cc2OC)CC1 [Example 34, 1-(4-{[4-(4-{[4-(6-Ethylpyridin-3-yl)-1,3-thiazol-2-yl]oxy}-2-fluoroanilino)-7-methoxyquinazolin-6-yl]oxy}piperidin-1-yl)prop-2-en-1-one] | > 10000 nM |
| 12.9 nM | 14.8 nM | 213 nM | C=CC(=O)N1CCC(Oc2cc3c(Nc4ccc(Oc5nc(-c6ccc(OC)nc6)cs5)cc4F)ncnc3cc2OC)CC1 [Example 35, 1-(4-{[4-(2-Fluoro-4-{[4-(6-methoxypyridin-3-yl)-1,3-thiazol-2-yl]oxy}anilino)-7-methoxyquinazolin-6-yl]oxy}piperidin-1-yl)prop-2-en-1-one] | > 10000 nM |
| 10 nM | 12 nM | 377 nM | C=CC(=O)N1CCC(Oc2cc3c(Nc4ccc(Oc5nc(-c6cnc(C)nc6)cs5)cc4F)ncnc3cc2OC)CC1 [Example 36, 1-(4-{[4-(2-Fluoro-4-{[4-(2-methylpyrimidin-5-yl)-1,3-thiazol-2-yl]oxy}anilino)-7-methoxyquinazolin-6-yl]oxy}piperidin-1-yl)prop-2-en-1-one] | > 10000 nM |
| 5.7 nM | 10.5 nM | 163 nM | C=CC(=O)N1CCC(Oc2cc3c(Nc4ccc(Oc5nc(-c6ccc(C)nc6)cs5)cc4F)ncnc3cc2OC)CC1 [Example 37, 1-(4-{[4-(2-Fluoro-4-{[4-(6-methylpyridin-3-yl)-1,3-thiazol-2-yl]oxy}anilino)-7-methoxyquinazolin-6-yl]oxy}piperidin-1-yl)prop-2-en-1-one] | > 10000 nM |
| 18.3 nM | 17 nM | 174 nM | C=CC(=O)N1CCC(Oc2cc3c(Nc4ccc(Oc5nc(-c6cncc(F)c6)cs5)cc4F)ncnc3cc2OC)CC1 [Example 38, 1-(4-{[4-(2-Fluoro-4-{[4-(5-fluoropyridin-3-yl)-1,3-thiazol-2-yl]oxy}anilino)-7-methoxyquinazolin-6-yl]oxy}piperidin-1-yl)prop-2-en-1-one] | > 10000 nM |
| 58.7 nM | 12.2 nM | 161 nM | COc1cc2ncnc(Nc3ccc(Oc4cccc(-c5nnc(C)o5)c4)cc3F)c2cc1NC(=O)/C=C/CN(C)C [Example 39, (2E)-4-(Dimethylamino)-N-(4-{2-fluoro-4-[3-(5-methyl-1,3,4-oxadiazol-2-yl)phenoxy]anilino}-7-methoxyquinazolin-6-yl)but-2-enamide] | 1150 nM |
| 32.9 nM | 5.5 nM | 80.1 nM | CCOc1cc2ncnc(Nc3ccc(Oc4cccc(-c5nnc(C)o5)c4)cc3F)c2cc1NC(=O)/C=C/CN(C)C [Example 40, (2E)-4-(Dimethylamino)-N-(7-ethoxy-4-{2-fluoro-4-[3-(5-methyl-1,3,4-oxadiazol-2-yl)phenoxy]anilino}quinazolin-6-yl)but-2-enamide] | 765 nM |
| 27 nM | 8.2 nM | 114 nM | CCc1nnc(-c2cccc(Oc3ccc(Nc4ncnc5cc(OC)c(NC(=O)/C=C/CN(C)C)cc45)c(F)c3)c2)o1 [Example 41, (2E)-4-(Dimethylamino)-N-(4-{4-[3-(5-ethyl-1,3,4-oxadiazol-2-yl)phenoxy]-2-fluoroanilino)-7-methoxyquinazolin-6-yl)but-2-enamide] | 841 nM |
| 17.7 nM | 5.1 nM | 103 nM | CCOc1cc2ncnc(Nc3ccc(Oc4cccc(-c5nnc(CC)o5)c4)cc3F)c2cc1NC(=O)/C=C/CN(C)C [Example 42, (2E)-4-(Dimethylamino)-N-(7-ethoxy-4-{4-[3-(5-ethyl-1,3,4-oxadiazol-2-yl)phenoxy]-2-fluoroanilino}quinazolin-6-yl)but-2-enamide] | 764 nM |
| 14.1 nM | 5.5 nM | 69.8 nM | COc1cc2ncnc(Nc3ccc(Oc4cccc(-c5nnc(C(C)C)o5)c4)cc3F)c2cc1NC(=O)/C=C/CN(C)C [Example 43, (2E)-4-(Dimethylamino)-N-[4-(2-fluoro-4-{3-[5-(propan-2-yl)-1,3,4-oxadiazol-2-yl]phenoxy}anilino)-7-methoxyquinazolin-6-yl]but-2-enamide] | 806 nM |
| 52.2 nM | 15.5 nM | 167 nM | COc1cc2ncnc(Nc3ccc(Oc4cccc(-c5nnc(C)s5)c4)cc3F)c2cc1NC(=O)/C=C/CN(C)C [Example 44, (2E)-4-(Dimethylamino)-N-(4-{2-fluoro-4-[3-(5-methyl-1,3,4-thiadiazol-2-yl)phenoxy]anilino}-7-methoxyquinazolin-6-yl)but-2-enamide] | 724 nM |

— patent publication US20230025510A1, “BIARYL ETHER-TYPE QUINAZOLINE DERIVATIVES” (DAIICHI SANKYO COMPANY, LIMITED, priority 2018, published 2023)
